Results from the Kinase Knowledgebase extract (Sharma et al. 2016).

How the values were obtained:
CDK2 (human) [1] = molecular target: CDK2 (human) (UniProt P24941); assay: Enzyme Assay
CDK2 (human) [2] = molecular target: CDK2 (human) (UniProt P24941); assay: Cell-Based Assay

Compound	IC50 (CDK2 (human) [1]) [µM]	IC50 (CDK2 (human) [2]; mda-mb-435) [µM]	IC50 (CDK2 (human) [2]; rko) [µM]
O=C1Nc2ccc(F)c3c(N4CCCC(CO)C4)cc(-c4ccc[nH]4)c1c23 (stereo not given)	≤ 10	≤ 10	≤ 10
NCCCNc1cc(-c2ccc[nH]2)c2c3c(ccc(F)c13)NC2=O	≤ 10	–	–
O=C1Nc2ccc(F)c3c2C1=C(c1ccc[nH]1)CC3	≤ 10	–	–
Cc1cc(-c2ccc[nH]2)c2c3c(ccc(F)c13)NC2=O	≤ 10	–	–
O=C1Nc2ccc(F)c3c(N4CC[C@@H](O)C4)cc(-c4ccc[nH]4)c1c23	≤ 10	–	–
O=C1Nc2ccc(F)c3c([S+]([O-])CCO)cc(-c4ccc[nH]4)c1c23 (stereo not given)	–	–	≤ 10
O=C1Nc2ccc(F)c3c(N4CCNCC4)cc(-c4ccc[nH]4)c1c23	≤ 10	–	–
CCc1cc(-c2ccc[nH]2)c2c3c(ccc(F)c13)NC2=O	≤ 10	–	–
O=C1Nc2ccc(F)c3c(OCCCO)cc(-c4ccc[nH]4)c1c23	≤ 10	–	–
O=C1Nc2ccc(F)c3c(N4CCNC4=O)cc(-c4ccc[nH]4)c1c23	≤ 10	–	–
O=C1Nc2ccc(F)c3c(OCCO)cc(-c4ccc[nH]4)c1c23	≤ 10	–	–
COc1cc(-c2ccc[nH]2)c2c3c(ccc(F)c13)NC2=O	≤ 10	–	–

More lines, now with the values ahead:

IC50 (CDK2 (human) [1]) [µM]	IC50 (CDK2 (human) [2]; mda-mb-435) [µM]	IC50 (CDK2 (human) [2]; rko) [µM]	Compound
≤ 10	–	–	NCCOc1cc(-c2ccc[nH]2)c2c3c(ccc(F)c13)NC2=O
≤ 10	–	–	CC(C)(N)CNc1cc(-c2ccc[nH]2)c2c3c(ccc(F)c13)NC2=O
≤ 10	–	–	O=C1Nc2ccc(F)c3c(NCCO)cc(-c4ccc[nH]4)c1c23
≤ 10	–	–	CC(=O)NCCNc1cc(-c2ccc[nH]2)c2c3c(ccc(F)c13)NC2=O
≤ 10	–	–	O=C1Nc2ccc(F)c3c(SCCO)cc(-c4ccc[nH]4)c1c23
≤ 10	–	–	O=C1Nc2ccc(F)c3c(N4CCOCC4)cc(-c4ccc[nH]4)c1c23
≤ 10	–	–	NCCS(=O)(=O)c1cc(-c2ccc[nH]2)c2c3c(ccc(F)c13)NC2=O
≤ 10	≤ 10	≤ 10	NCC[S+]([O-])c1cc(-c2ccc[nH]2)c2c3c(ccc(F)c13)NC2=O (stereo not given)
≤ 10	–	–	CCN(CC)CCNc1cc(-c2ccc[nH]2)c2c3c(ccc(F)c13)NC2=O
≤ 10	–	–	O=C1Nc2ccc(F)c3c(N4CCC(O)CC4)cc(-c4ccc[nH]4)c1c23
≤ 10	≤ 10	≤ 10	O=C1Nc2ccc(F)c3c(N4CCCC(O)C4)cc(-c4ccc[nH]4)c1c23 (stereo not given)
≤ 10	–	–	O=C1Nc2ccc(F)c3ccc(-c4ccc[nH]4)c1c23
≤ 10	–	–	O=C1Nc2ccc(F)c3c(S(=O)(=O)CCO)cc(-c4ccc[nH]4)c1c23
≤ 10	–	–	CCC(C)c1cc(-c2ccc[nH]2)c2c3c(ccc(F)c13)NC2=O (stereo not given)
≤ 10	–	–	Cc1c[nH]c(-c2cc(SCCN)c3c(F)ccc4c3c2C(=O)N4)c1C
≤ 10	–	–	CCOc1cc(-c2ccc[nH]2)c2c3c(ccc(F)c13)NC2=O
≤ 10	–	–	NCCSc1cc(-c2ccc[nH]2)c2c3c(ccc(F)c13)NC2=O
